Measurements published in patent US20130005721A1, “INDOLIZINE INHIBITORS OF 5-LIPOXYGENASE” (PANMIRA PHARMACEUTICALS, LLC, priority 2009, published 2013).

Each compound was assayed on human leukocytes (LTB4 production, calcium ionophore stimulated) (assay: Human Leukocyte LTB4 Inhibition Assay). Settings: Leukocyte, LTB4 by ELISA, read-out: LTB4 HLA IC50.
Type: cell-based
Protocol: Human Leukocyte LTB4 Inhibition Assay
A non-limiting example of a human leukocyte inhibition assay is as follows; Blood was drawn from consenting human volunteers into heparanized tubes and 3% dextran 0.9% saline ⅓ rd volume added. After sedimentation of red blood cells a hypotonic lysis of remaining red blood cells was performed and leukocytes sedimented at 1200 rpm. The pellet was resuspended at 1.25×10^5 cells/ml and aliquoted into wells containing 1 μL 100% DMSO (vehicle) or 2.5 μL drug in 100% DMSO. Samples were incubated for 5 minutes at 37° C. and 2 μL calcium ionophore […] (from a 50 mM DMSO stock diluted just prior to the assay in Hanks balanced salt solution (Invitrogen)) to 1.25 mM) was added, solutions mixed and incubated for 30 minutes at 37° C. Samples were centrifuged at 1,200 rpm (−200×g) for 10 minutes at 4° C., plasma removed and a 1:4 dilution assayed for LTB4 concentration using ELISA (Assay Designs). Drug concentrations to achieve 50% inhibition (IC50's) of vehicle LTB4 were determined by nonlinear regression (Graphpad Prism) of % inhibition versus log drug concentration.

Row | SMILES | IC50
1 | CCC(O)(c1cn(Cc2ccn3c(-c4ccc(F)cc4)c(C(=O)N4CCS(=O)(=O)C4)cc3c2)nn1)C(F)(F)F (stereo not drawn) [Compound 1-50, (1,1-Dioxo-1λ^6-thiazolidin-3-yl)-{3-(4-fluoro-phenyl)-7-[4-(1-hydroxy-1-trifluoromethyl-propyl)-[1,2,3]triazol-1-ylmethyl]-indolizin-2-yl}-methanone] | > 1000 nM
2 | CCOC(=O)c1cc2cc(Cn3cc(C(CC)(OC(=O)c4ccc([N+](=O)[O-])cc4)C(F)(F)F)nn3)ccn2c1-c1ccc(OC)nc1 (single isomer, unassigned) [Compound 1-85, 3-(6-Methoxy-pyridin-3-yl)-7-{4-[1-(4-nitro-benzoyloxy)-1-trifluoromethyl-propyl]-[1,2,3]triazol-1-ylmethyl}-indolizine-2-carboxylic acid ethyl ester] | 300 to 1000 nM
3 | CCC(O)(c1cn(Cc2ccn3c(-c4ccc(F)cc4)c(C(N)=O)cc3c2)nn1)C(F)(F)F (single isomer, unassigned) [Compound 1-9, 3-(4-Fluoro-phenyl)-7-[4-(1-hydroxy-1-trifluoromethyl-propyl)-[1,2,3]triazol-1-ylmethyl]-indolizine-2-carboxylic acid amide] | < 300 nM
4 | CCOC(=O)c1cc2cc(Cn3cc(C(O)(CC)C(F)(F)F)nn3)ccn2c1-c1ccnc(C)c1 (stereo not drawn) [Compound 1-63, 7-[4-(1-Hydroxy-1-trifluoromethyl-propyl)-[1,2,3]triazol-1-ylmethyl]-3-(2-methyl-pyridin-4-yl)-indolizine-2-carboxylic acid ethyl ester] | < 300 nM
5 | CCC(OC(=O)c1ccc([N+](=O)[O-])cc1)(c1cn(Cc2ccn3c(-c4ccc(OC)nc4)c(C(N)=O)cc3c2)nn1)C(F)(F)F (single isomer, unassigned) [Compound 1-83, 4-Nitro-benzoic acid 1-{1-[2-carbamoyl-3-(6-methoxy-pyridin-3-yl)-indolizin-7-ylmethyl]-1H-[1,2,3]triazol-4-yl}-1-trifluoromethyl-propyl ester] | 300 to 1000 nM
6 | CCC(O)(c1cn(Cc2ccn3c(-c4ccc(F)cc4)c(C(C)(C)O)cc3c2)nn1)C(F)(F)F (stereo not drawn) [Compound 1-7, 1,1,1-Trifluoro-2-{1-[3-(4fluoro-phenyl)-2-(1-hydroxy-1-methyl-ethyl)-indolizin-7-ylmethyl]-1H-[1,2,3]triazol-4-yl}-butan-2-ol] | < 300 nM
7 | CCC(O)(c1cn(Cc2ccn3c(-c4ccc(F)cc4)c(CNCCC#N)cc3c2)nn1)C(F)(F)F (stereo not drawn) [Compound 1-42, 3-({3-(4-Fluoro-phenyl)-7-[4-(1-hydroxy-1-trifluoromethyl-propyl)-[1,2,3]triazol-1-ylmethyl]-indolizin-2-ylmethyl}-amino)-propionitrile] | < 300 nM
8 | CCC(O)(c1cn(Cc2ccn3c(-c4ccc(OC)nc4)c(C#N)cc3c2)nn1)C(F)(F)F (single isomer, unassigned) [Compound 1-79, 7-[4-(1-Hydroxy-1-trifluoromethyl-propyl)-[1,2,3]triazol-1-ylmethyl]-3-(6-methoxy-pyridin-3-yl)-indolizine-2-carbonitrile] | < 300 nM
9 | CCC(O)(c1cn(Cc2ccn3c(-c4ccc(F)cc4)c(CN4CCOCC4)cc3c2)nn1)C(F)(F)F (stereo not drawn) [Compound 1-38, 1,1,1-Trifluoro-2-{1-[3-(4-fluoro-phenyl)-2-morpholin-4-ylmethyl-indolizin-7-ylmethyl]-1H-[1,2,3]triazol-4-yl}-butan-2-ol] | 300 to 1000 nM
10 | CCC(O)(c1cn(Cc2ccn3c(-c4ccc(F)cc4)c(C=O)cc3c2)nn1)C(F)(F)F (stereo not drawn) [Compound 1-33, 3-(4-Fluoro-phenyl)-7-[4-(1-hydroxy-1-trifluoromethyl-propyl)-[1,2,3]triazol-1-ylmethyl]-indolizine-2-carbaldehyde] | < 300 nM
11 | CCC(O)(c1cn(Cc2ccn3c(-c4ccc(C)nc4)c(C#N)cc3c2)nn1)C(F)(F)F (single isomer, unassigned) [Compound 1-76, 7-[4-(1-Hydroxy-1-trifluoromethyl-propyl)-[1,2,3]triazol-1-ylmethyl]-3-(6-methyl-pyridin-3-yl)-indolizine-2-carbonitrile] | < 300 nM
12 | CCC(O)(c1cn(Cc2ccn3c(-c4ccc(OC)nc4)c(C(N)=O)cc3c2)nn1)C(F)(F)F (single isomer, unassigned) [Compound 1-78, 7-[4-(1-Hydroxy-1-trifluoromethyl-propyl)-[1,2,3]triazol-1-ylmethyl]-3-(6-methoxy-pyridin-3-yl)-indolizine-2-carboxylic acid amide] | < 300 nM

Now from value to compound:

Row | IC50 | SMILES
13 | < 300 nM | CCC(O)(c1cn(Cc2ccn3c(-c4cccnc4)c(C#N)cc3c2)nn1)C(F)(F)F (stereo not drawn) [Compound 1-26, 7-[4-(1-Hydroxy-1-trifluoromethyl-propyl)-[1,2,3]triazol-1-ylmethyl]-3-pyridin-3-yl-indolizine-2-carbonitrile]
14 | < 300 nM | CCOC(=O)c1cc2cc(Cn3cc(C(O)(CC)C(F)(F)F)nn3)ccn2c1-c1ccc(F)nc1 (stereo not drawn) [Compound 1-29, 3-(6-Fluoro-pyridin-3-yl)-7-[4-(1-hydroxy-1-trifluoromethyl-propyl) [1,2,3]triazol-1-ylmethyl]-indolizine-2-carb oxylic acid ethyl ester]
15 | < 300 nM | CCC(O)(c1cn(Cc2ccn3c(-c4ccc(F)cc4)c(C(=O)N(C)OC)cc3c2)nn1)C(F)(F)F (stereo not drawn) [Compound 1-51, 3-(4-Fluoro-phenyl)-7-[4-(1-hydroxy-1-trifluoromethyl-propyl)-[1,2,3]triazol-1-ylmethyl]-indolizine-2-carboxylic acid methoxy-methyl-amide]
16 | < 300 nM | CCC(O)(c1cn(Cc2ccn3c(-c4ccc(F)cc4)c(C#N)cc3c2)nn1)C(F)(F)F (stereo not drawn) [Compound 1-16, 3-(4-Fluoro-phenyl)-7-[4-(1-hydroxy-1-trifluoromethyl-propyl)-[1,2,3]triazol-1-ylmethyl]-indolizine-2-carbonitrile]
17 | < 300 nM | CCC(O)(c1cn(Cc2ccn3c(-c4ccc(F)cc4)c(CS(C)(=O)=O)cc3c2)nn1)C(F)(F)F (stereo not drawn) [Compound 1-34, 1,1,1-Trifluoro-2-{1-[3-(4-fluoro-phenyl)-2-methanesulfonylmethyl-indolizin-7-ylmethyl]-1H-[1,2,3]triazol-4-yl}-butan-2-ol]
18 | < 300 nM | CCOc1ccc(-c2c(C#N)cc3cc(Cn4cc(C(O)(CC)C(F)(F)F)nn4)ccn23)cn1 (stereo not drawn) [Compound 1-59, 3-(6-Ethoxy-pyridin-3-yl)-7-[4-(1-hydroxy-1-trifluoromethyl-propyl)-[1,2,3]triazol-1-ylmethyl]-indolizine-2-carbonitrile]
19 | < 300 nM | CCOC(=O)CCNCc1cc2cc(Cn3cc(C(O)(CC)C(F)(F)F)nn3)ccn2c1-c1ccc(F)cc1 (stereo not drawn) [Compound 1-37, 3-({3-(4-Fluoro-phenyl)-7-[4-(1-hydroxy-1-trifluoromethyl-propyl)-[1,2,3]triazol-1-ylmethyl]-indolizin-2-ylmethyl}-amino)-propionic acid ethyl ester]
20 | < 300 nM | CCC(O)(c1cn(Cc2ccn3c(-c4ccc(F)cc4)c(C(N)=O)c(Cl)c3c2)nn1)C(F)(F)F (stereo not drawn) [Compound 1-61, 1-Chloro-3-(4-fluoro-phenyl)-7-[4-(1-hydroxy-1-trifluoromethyl-propyl)-[1,2,3]triazol-1-ylmethyl]-indolizine-2-carboxylic acid amide]
21 | < 300 nM | CCC(O)(c1cn(Cc2ccn3c(-c4ccnc(C)c4)c(C#N)cc3c2)nn1)C(F)(F)F (single isomer, unassigned) [Compound 1-80, 7-[4-(1-Hydroxy-1-trifluoromethyl-propyl)-[1,2,3]triazol-1-ylmethyl]-3-(2-methyl-pyridin-4-yl)-indolizine-2-carbonitrile]
22 | < 300 nM | CCOC(=O)c1cc2cc(Cn3ncc(C(O)(CC)C(F)(F)F)n3)ccn2c1-c1ccc(F)cc1 (stereo not drawn) [Compound 1-3, 3-(4-Fluoro-phenyl)-7-[4-(1-hydroxy-1-trifluoromethyl-propyl)-[1,2,3]triazol-2-ylmethyl]-indolizine-2-carboxylic acid ethyl ester]
23 | < 300 nM | CCC(O)(c1cn(Cc2ccn3c(-c4ccc(F)cc4)c(/C=C/C(=O)OC)cc3c2)nn1)C(F)(F)F (stereo not drawn) [Compound 1-39, (E)-3-{3-(4-Fluoro-phenyl)-7-[4-(1-hydroxy-1-trifluoromethyl-propyl)-[1,2,3]triazol-1-ylmethyl]-indolizin-2-yl}-acrylic acid methyl ester]
24 | < 300 nM | CCC(O)(c1cn(Cc2ccn3c(-c4ccc(F)cc4)c(C(N)=O)cc3c2)nn1)C(F)(F)F (stereo not drawn) [Compound 1-6, 3-(4-Fluoro-phenyl)-7-[4-(1-hydroxy-1-trifluoromethyl-propyl)-[1,2,3]triazol-1-ylmethyl]-indolizine-2-carboxylic acid amide]
25 | < 300 nM | CCC(O)(c1cn(Cc2ccn3c(-c4ccc(F)cc4)c(CO)cc3c2)nn1)C(F)(F)F (stereo not drawn) [Compound 1-30, 1,1,1-Trifluoro-2-{1-[3-(4-fluoro-phenyl)-2-hydroxymethyl-indolizin-7-ylmethyl]-1H-[1,2,3]triazol-4-yl}-butan-2-ol]
26 | < 300 nM | CCOC(=O)c1nc2cc(Cn3cc(C(O)(CC)C(F)(F)F)nn3)ccn2c1-c1ccc(F)cc1 (stereo not drawn) [Compound 1-13, 3-(4-Fluoro-phenyl)-7-[4-(1-hydroxy-1-trifluoromethyl-propyl)-[1,2,3]triazol-1-ylmethyl]-imidazo[1,2-a]pyridine-2-carboxylic acid ethyl ester]
27 | < 300 nM | CCOC(=O)c1cc2cc(Cn3cc(C(O)(CC)C(F)(F)F)nn3)ccn2c1-c1cccc(S(C)(=O)=O)c1 (stereo not drawn) [Compound 1-47, 7-[4-(1-Hydroxy-1-trifluoromethyl-propyl)-[1,2,3]triazol-1-ylmethyl]-3-(3-methanesulfonyl-phenyl)-indolizine-2-carboxylic acid ethyl ester]
